This note sets out measurements from patent publication US8586538B2, “Method of treating a patient suffering from a bleeding disorder comprising administering an antibody against the A3-C1 of FVIII” (Stichting Sanquin Bloedvoorziening, priority 2002, dated 2013).

This assay deals with LRP cluster II. Description: SPR binding of LRP cluster II to immobilized light chains (FVIII, FVa, FVIII/FV chimera). Conditions: LRP cluster II 100 nM; immobilized light chain. As to the method: FIG. 3. Binding of LRP cluster II to immobilized FVa light chain. […] Response is indicated as Resonance Units (RU) and is corrected for nonspecific binding, which was less than 5% relative to coated channels.
Chain of LRP cluster II (Q07954 803-1182 limits assumed): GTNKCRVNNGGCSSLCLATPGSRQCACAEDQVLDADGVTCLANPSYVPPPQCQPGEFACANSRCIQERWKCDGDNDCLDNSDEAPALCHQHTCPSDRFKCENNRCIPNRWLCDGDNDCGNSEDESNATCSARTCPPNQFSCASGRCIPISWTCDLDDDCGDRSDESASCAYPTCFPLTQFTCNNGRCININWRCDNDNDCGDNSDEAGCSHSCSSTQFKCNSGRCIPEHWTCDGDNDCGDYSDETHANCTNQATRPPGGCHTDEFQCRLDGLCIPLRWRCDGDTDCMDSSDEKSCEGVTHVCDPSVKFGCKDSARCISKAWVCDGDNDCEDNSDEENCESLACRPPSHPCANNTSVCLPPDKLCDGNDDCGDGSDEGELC
FIG. 6. Binding of LRP cluster II to the FVIII/FV^1811-1818 light chain chimera. ScFv EL14 at a CM5 sensor chip (67 fmol/mm^2) was incubated with either the recombinant wild-type FVIII light chain or the recombinant FVIII/FV^1811-1818 chimera till a density of 20 fmol/mm^2, in 150 mM NaCl, 50 mM Tris (pH 7.4). […] Bound LRP cluster II is expressed as the amount associated after 2 min.
The kinetics of protein interactions was determined by surface plasmon resonance (SPR) analysis, employing a BIAcore™2000 biosensor system (Biacore AS, Uppsala, Sweden). […] Association of analyte was assessed in 150 mM NaCl, 2 mM CaCl2, 0.005% (v/v) Tween® 20, and 20 mM Hepes (pH 7.4) for 2 min, at a flow rate of 20 μl/min at 25° C. […] The association (kon) and dissociation (koff) rate constants were determined by using the BIAevaluation software 3.1 (Biacore AB, Uppsala, Sweden). […] Equilibrium dissociation constants (kd) were calculated from the ratio koff/kon. […]

For the substance “FVa light chain: light chain of thrombin-activated human Factor V purified from plasma”, the “Binding to LRP cluster II” value is “did not interact”.
